Laboratory results reported in ChEMBL document CHEMBL1201862, “PubChem BioAssay data set” (2004).
Active and inactive are the calls of the source.

Tests used:
[1] = activation of miR-122 Renilla sensor silencing – cell-based, Huh7 psiCHECK-miR122, Renilla luciferase, cherry-picked, dose response (AID 651956); assay type: functional;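 also: huh7 hepatoma cells stably carrying a psiCHECK-2 miR-122 sensor plasmid; renilla luciferase signal reporting endogenous miR-122 activity after 48 h compound exposure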
[2] = target: Nuclear receptor subfamily 5 group A member 2 (Homo sapiens, UniProt O00482); assay type: functional, cell-based;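 also: HEK293T cells transfected with LRH-1 and a StAR promoter luciferase reporter; potency for inhibitors that lower LRH-1 driven reporter light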
Steroidogenic factor 1 = Steroidogenic factor 1 (Homo sapiens, UniProt Q13285); test: Counterscreen for inverse agonists of the liver receptor homolog-1 (LRH-1; NR5A2): Luminescence-based cell-based high throughput dose response assay to identify inverse agonists of the Steroidogenic Factor 1 Nuclear Receptor (SF1; NR5A1).; assay type: functional
[3] = nonselective StAR promoter luciferase inhibitors – cell-based, luminescence, luciferase reporter, counter-screen for LRH-1 inverse agonist project, dose response (AID 651969); assay type: functional
[4] = reduction of Shn3 3'UTR-driven luciferase in osteoblasts – cell-based, Clone20 osteoblasts, firefly luciferase, cherry-picked, dose response (AID 624132); assay type: functional;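 also: firefly luciferase luminescence from reporter carrying the Shn3 3'UTR in osteoblasts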
[5] = loss of viability in HepG2 cells – cell-based, CellTiter-Glo, cherry-picked, cytotoxicity control for Shn3 inhibitor project, dose response (AID 624134); assay type: functional
[6] = non-specific 3'UTR reporter inhibition in Clone20-Shn3RL – cell-based, Renilla luciferase, cherry-picked, counter-screen for Shn3 inhibitor project, dose response (AID 624133); assay type: functional
[7] = Fluorescence-based cell-based high throughput dose response assay for inhibitors of the interaction of nucleotide-binding oligomerization domain containing 2 (NOD2) and the receptor-interacting serine-threonine kinase 2 (RIPK2).; assay type: functional; conditions: Homo sapiens
Beta Lactamase = Beta Lactamase (Pseudomonas aeruginosa, UniProt Q932Y6); test: BLA reporter interference, concentration series – BLA reporter cells, FRET fluorescence, artefact control for NOD2-RIPK2 interaction inhibitor project, dose response (AID 651552); assay type: functional, cell-based
Paired box protein Pax-8 = Paired box protein Pax-8 (Homo sapiens, UniProt Q06710); test: PAX8 transcriptional activity inhibition in RMG-I – RMG-I cells, luciferase, cherry-pick, dose response (AID 687027); assay type: functional, cell-based;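 also: luciferase reporter driven by Pax8 target thyroperoxidase promoter measured by SteadyGlo luminescence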
[8] = general cell-killing toxicity readout – plate reader, dry powder samples, cytotoxicity control for PAX8 inhibitor project, dose response (AID 743021); assay type: functional, cell-based
[9] = target: T1, Sentrin-specific protease 8 (Homo sapiens, UniProt Q96LD8); assay type: functional
T1 sequence (Q96LD8 whole entry): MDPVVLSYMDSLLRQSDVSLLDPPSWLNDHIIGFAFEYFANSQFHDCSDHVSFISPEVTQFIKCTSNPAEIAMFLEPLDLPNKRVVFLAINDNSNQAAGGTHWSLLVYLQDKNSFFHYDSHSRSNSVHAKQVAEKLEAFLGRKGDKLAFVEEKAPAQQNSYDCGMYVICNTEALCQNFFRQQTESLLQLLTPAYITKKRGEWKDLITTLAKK

[10] = target: T1, Sentrin-specific protease 8; assay type: functional; remark: listed apart in the source
Caspase-3 = target: T2, Caspase-3 (Homo sapiens, UniProt P42574); test: Dose-response confirmation of uHTS inhibitor hits of Sentrin-Specific Protease 8 in a Caspase-3 Fluorescence assay.; assay type: functional
T2 sequence (P42574 whole entry): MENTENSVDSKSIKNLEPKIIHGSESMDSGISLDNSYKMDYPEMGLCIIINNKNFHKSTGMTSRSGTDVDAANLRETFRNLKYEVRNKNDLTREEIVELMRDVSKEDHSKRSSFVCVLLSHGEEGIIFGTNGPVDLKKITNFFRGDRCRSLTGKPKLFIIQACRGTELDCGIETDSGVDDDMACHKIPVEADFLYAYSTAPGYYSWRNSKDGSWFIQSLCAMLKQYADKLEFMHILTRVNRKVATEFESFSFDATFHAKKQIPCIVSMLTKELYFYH

[11] = target: ADP-ribosylation factor GTPase-activating protein 1 (Rattus norvegicus, UniProt Q62848); test: Fluorescence polarization-based biochemical high throughput dose response screening assay to identify inhibitors of ADP-ribosylation factor GTPase activating protein 1 (ARFGAP1).; assay type: functional
[12] = target: Photoreceptor-specific nuclear receptor (Homo sapiens, UniProt Q9Y5X4); assay type: functional, cell-based;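 also: CHO-S cells with Gal4-NCOR and VP16-NR2E3 two-hybrid luciferase reporter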
Photoreceptor-specific nuclear receptor, sequence (Q9Y5X4 whole entry, the tested form may be a part): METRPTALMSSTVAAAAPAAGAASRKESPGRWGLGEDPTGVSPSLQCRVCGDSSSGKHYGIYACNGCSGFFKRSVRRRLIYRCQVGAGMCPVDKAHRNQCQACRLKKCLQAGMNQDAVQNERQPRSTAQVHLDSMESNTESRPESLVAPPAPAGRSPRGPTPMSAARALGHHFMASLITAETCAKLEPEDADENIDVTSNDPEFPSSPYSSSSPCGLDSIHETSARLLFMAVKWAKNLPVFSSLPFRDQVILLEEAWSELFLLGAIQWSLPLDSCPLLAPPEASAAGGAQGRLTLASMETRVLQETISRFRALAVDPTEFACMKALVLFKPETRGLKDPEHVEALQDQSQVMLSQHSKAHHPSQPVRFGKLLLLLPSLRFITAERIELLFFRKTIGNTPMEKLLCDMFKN

Beta Lactamase, sequence (Q932Y6 whole entry): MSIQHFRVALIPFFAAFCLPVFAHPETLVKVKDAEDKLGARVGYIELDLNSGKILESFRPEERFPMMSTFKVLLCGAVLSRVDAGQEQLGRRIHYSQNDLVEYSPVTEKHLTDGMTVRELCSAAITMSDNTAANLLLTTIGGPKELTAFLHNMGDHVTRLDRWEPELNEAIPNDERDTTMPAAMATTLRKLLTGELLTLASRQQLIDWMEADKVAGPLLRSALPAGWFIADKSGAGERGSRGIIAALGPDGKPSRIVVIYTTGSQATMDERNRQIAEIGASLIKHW
Paired box protein Pax-8, sequence (Q06710 whole entry): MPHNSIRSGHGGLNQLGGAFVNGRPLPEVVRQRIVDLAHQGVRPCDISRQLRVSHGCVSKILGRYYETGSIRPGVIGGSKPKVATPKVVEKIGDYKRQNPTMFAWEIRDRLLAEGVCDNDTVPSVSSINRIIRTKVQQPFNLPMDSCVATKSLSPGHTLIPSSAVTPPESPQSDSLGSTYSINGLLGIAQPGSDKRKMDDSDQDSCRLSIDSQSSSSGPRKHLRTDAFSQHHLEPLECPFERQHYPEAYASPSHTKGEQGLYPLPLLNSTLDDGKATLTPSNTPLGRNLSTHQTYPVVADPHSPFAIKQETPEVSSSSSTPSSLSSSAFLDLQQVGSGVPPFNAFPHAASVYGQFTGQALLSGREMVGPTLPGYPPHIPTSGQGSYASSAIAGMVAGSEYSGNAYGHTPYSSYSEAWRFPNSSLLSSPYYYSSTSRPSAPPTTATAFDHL
Steroidogenic factor 1, sequence (Q13285 whole entry): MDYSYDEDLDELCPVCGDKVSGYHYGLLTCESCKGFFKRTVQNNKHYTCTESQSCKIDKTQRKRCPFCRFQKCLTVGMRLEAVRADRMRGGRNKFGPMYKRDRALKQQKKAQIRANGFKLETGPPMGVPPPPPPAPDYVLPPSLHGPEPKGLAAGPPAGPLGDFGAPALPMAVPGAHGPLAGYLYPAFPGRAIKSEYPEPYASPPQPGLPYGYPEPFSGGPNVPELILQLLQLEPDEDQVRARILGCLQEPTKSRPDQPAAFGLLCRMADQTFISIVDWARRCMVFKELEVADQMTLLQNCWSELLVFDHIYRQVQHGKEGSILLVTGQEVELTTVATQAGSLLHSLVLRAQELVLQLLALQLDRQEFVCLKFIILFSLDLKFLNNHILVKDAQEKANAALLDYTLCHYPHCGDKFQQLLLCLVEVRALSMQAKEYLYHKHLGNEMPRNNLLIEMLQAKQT
ADP-ribosylation factor GTPase-activating protein 1, sequence (Q62848 whole entry, the tested form may be a part): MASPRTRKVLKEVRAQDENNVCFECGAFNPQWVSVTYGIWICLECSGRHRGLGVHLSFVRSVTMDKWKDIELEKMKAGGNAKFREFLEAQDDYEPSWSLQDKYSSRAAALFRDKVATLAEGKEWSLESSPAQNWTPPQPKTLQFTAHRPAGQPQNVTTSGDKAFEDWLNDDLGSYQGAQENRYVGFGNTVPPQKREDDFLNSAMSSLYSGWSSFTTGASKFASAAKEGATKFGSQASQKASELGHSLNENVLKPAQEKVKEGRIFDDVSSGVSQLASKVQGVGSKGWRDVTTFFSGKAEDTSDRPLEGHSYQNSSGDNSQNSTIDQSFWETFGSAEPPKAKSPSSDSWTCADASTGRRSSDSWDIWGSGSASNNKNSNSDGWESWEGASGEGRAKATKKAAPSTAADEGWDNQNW
Nuclear receptor subfamily 5 group A member 2, sequence (O00482 whole entry): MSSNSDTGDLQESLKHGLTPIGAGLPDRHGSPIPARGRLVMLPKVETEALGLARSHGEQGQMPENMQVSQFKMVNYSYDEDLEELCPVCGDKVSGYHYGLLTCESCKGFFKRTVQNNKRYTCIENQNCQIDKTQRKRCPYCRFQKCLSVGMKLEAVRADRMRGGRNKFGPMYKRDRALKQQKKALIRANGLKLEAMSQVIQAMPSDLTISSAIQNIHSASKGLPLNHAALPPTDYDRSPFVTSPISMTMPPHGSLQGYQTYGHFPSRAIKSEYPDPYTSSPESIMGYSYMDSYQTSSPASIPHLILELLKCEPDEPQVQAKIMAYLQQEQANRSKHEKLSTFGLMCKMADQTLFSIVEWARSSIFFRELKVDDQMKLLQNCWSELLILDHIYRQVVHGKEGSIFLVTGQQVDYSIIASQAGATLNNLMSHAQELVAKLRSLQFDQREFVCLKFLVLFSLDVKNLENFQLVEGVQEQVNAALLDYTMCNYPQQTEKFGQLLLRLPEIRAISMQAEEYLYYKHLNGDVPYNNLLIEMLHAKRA

With `CCCC(NS(=O)(=O)c1ccc(Br)cc1)C(=O)O` (stereo unspecified) the AC50 [1] was 1.68 µM (active).
With `COc1ccc(OCCNC(=O)C2(C)CCN2Cc2ccc3ccccc3c2)cc1` (stereo unspecified) the IC50 [2] was 9.8 µM (active), the IC50 (Steroidogenic factor 1) was 6.42 µM (active) and the IC50 [3] was 35.9 µM (inactive).
In the case of `C=C1C(=O)C23C(O)C1CCC2C12CCCC(C)(COC(C)=O)C1C(O)C3(O)OC2` (stereo unspecified), the AC50 [4] is reported as 0.771 µM (active), the AC50 [5] is reported as 11.8 µM (active) and the AC50 [6] is reported as 3.84 µM (active). The IC50 [7] was 1.19 µM (active), the IC50 (Beta Lactamase) was 22.1 µM (inactive) and the AC50 (Paired box protein Pax-8) was 1.86 µM (active). The AC50 [8] was 28.9 µM (active).
In the case of `COc1ccc2c(c1)Cc1sc(NC(=O)c3cccnc3)nc1-2`, the IC50 [9] is reported as 7.97 µM (active), the IC50 [10] is reported as 3.66 µM (active) and the IC50 (Caspase-3) is reported as 29.2 µM (active).
In the case of `O/N=C\c1ccc2noc(-c3ccc(Cl)cc3)c2c1`, the IC50 [11] is reported as 50.7 µM (inactive).
In the case of `Cc1noc(C)c1S(=O)(=O)Nc1ccc(C(=O)N2CCN(c3ccc(Cl)cc3)CC2)cc1`, the IC50 [12] is reported as 11.7 µM (inactive).
